Columns and labels:
[1] = molecular target: butyrylcholinesterase from equine serum (Equus caballus, UniProt P81908); test: Butyrylcholinesterase; type: biochemical; conditions: read-out: % Inhibition at 100 μg/mL (BChE)
[2] = test system: BChE; conditions: cited from earlier work
[3] = test system: β-amyloid-induced neurotoxicity; conditions: mice; cited from earlier work
[4] = test system: mice with valium-impaired memory; conditions: radial arm maze; cited from earlier work
[5] = test system: neuronal cell death caused by oxidative stress; conditions: cited from earlier work
[6] = test system: AChE; conditions: cited from earlier work

butyrylcholinesterase from equine serum, sequence (P81908 whole entry): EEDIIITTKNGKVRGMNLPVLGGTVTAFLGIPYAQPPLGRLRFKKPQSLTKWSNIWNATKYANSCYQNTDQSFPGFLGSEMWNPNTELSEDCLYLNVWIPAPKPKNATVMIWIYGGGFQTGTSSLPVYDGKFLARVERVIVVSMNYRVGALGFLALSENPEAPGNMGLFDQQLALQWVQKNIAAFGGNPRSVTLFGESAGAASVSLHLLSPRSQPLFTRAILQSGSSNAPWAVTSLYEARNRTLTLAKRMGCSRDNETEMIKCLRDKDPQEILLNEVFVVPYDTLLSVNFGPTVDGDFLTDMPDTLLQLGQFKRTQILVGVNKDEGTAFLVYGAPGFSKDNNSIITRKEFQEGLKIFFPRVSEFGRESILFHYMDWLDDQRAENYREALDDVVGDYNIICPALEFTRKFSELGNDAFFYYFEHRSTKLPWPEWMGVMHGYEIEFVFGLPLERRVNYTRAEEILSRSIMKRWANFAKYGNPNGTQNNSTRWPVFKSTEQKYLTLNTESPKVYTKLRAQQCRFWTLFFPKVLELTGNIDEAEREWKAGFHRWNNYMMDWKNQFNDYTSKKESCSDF

## O=c1c(O[C@@H]2O[C@H](CO)[C@@H](O)[C@H](O)[C@H]2O)c(-c2ccc(O)cc2)oc2cc(O)cc(O)c12 [Compound 13, kaempferol 3-O-β-glucopyranoside]
[1]
  inhibition at 100 µg/mL: 7.45 ± 0.72%

## C/C=C(\CC[C@@H](C)[C@H]1CC[C@H]2[C@@H]3CC=C4C[C@@H](O)CC[C@]4(C)[C@H]3CC[C@]12C)C(C)C [Fucosterol, fucosterol]
[2]
  BChE inhibitory activity: weak BChE inhibitory activity

## CNC(=O)Oc1ccc2c(c1)[C@]1(C)CCN(C)[C@@H]1N2C [Physostigmine, physostigmine, reference compound]
[1]
  inhibition at 100 µg/mL: 94.94 ± 0.04%

## COc1cc(/C=C/C(=O)O)ccc1O [ferulic acid]
[3]
  β-amyloid-induced neurotoxicity: attenuate

## O=c1c(O)c(-c2ccc(O)cc2)oc2cc(O)cc(O)c12 [kaempferol]
[4]
  spatial learning and memory: significantly improved

## O=C(O)/C=C/c1ccc(O)cc1 [p-coumaric, p-coumaric acid]
[3]
  β-amyloid-induced neurotoxicity: attenuate

## Cc1c(C)c2c(c(C)c1O)CC[C@@](C)(CCC[C@H](C)CCC[C@H](C)CCCC(C)C)O2 [α-Tocopherol, α-tocopherol]
[5]
  protection against neuronal cell death caused by oxidative stress: protective effects

## CC[C@H](CC[C@@H](C)[C@H]1CC[C@H]2[C@@H]3CC=C4C[C@@H](O)CC[C@]4(C)[C@H]3CC[C@]12C)C(C)C [β-sitosterol]
[6]
  inhibitory effect on AChE: no appreciable inhibitory effect
[2]
  inhibitory effect on BChE: no appreciable inhibitory effect

— article PMC9339560 (Journal of Food and Drug Analysis, 2016)
